# From patent publication US8680268B2, “Sulfonic acid derivative compound and novel naphthalic acid derivative compound” (Adeka Corporation, priority 2010, dated 2014)
# Experiments:
# [1] = Measurement of UV absorption spectra of methanol solutions; assay type: physicochemical; settings: 1×10^−5 mol/liter; for Maximum absorption (nm), first absorption peak / Maximum absorption (nm), second absorption peak: 200 nm to 500 nm; for Maximum absorption (nm), first absorption peak / Absorbance at first absorption peak: (short wavelength); for Maximum absorption (nm), second absorption peak / Absorbance at second absorption peak: long wavelength
# Experimental: Solutions of the compounds listed in Table 2 among the compounds yielded in the above described examples and the comparative compounds 1-3 represented by the formulae described below in methanol with 1×10^−5 mol/liter were prepared to measure the UV absorption spectra of the solutions at 200 nm to 500 nm.
# [2] = Evaluation of solubility in various organic solvents at 25° C.; assay type: physicochemical; settings: concentration giving a stable solution
# Text: The case in which dissolution occurred at more than 20 mass % is indicated by 20<while the case of less than 0.5 mass % is indicated by 0.5>.
structure (smiles),measurement,setting,value
CC1(C)C2CCC1(CS(=O)(=O)ON1C(=O)c3cccc4cccc(c34)C1=O)C(=O)C2 (stereo not shown) [compound 1],"Maximum absorption (nm), first absorption peak",[1],231 nm
same,"Maximum absorption (nm), second absorption peak",[1],335 nm
same,Absorbance at first absorption peak,[1],0.413
same,Absorbance at second absorption peak,[1],0.133
same,Solubility in cyclohexanone,[2],6.1 mass %
same,Solubility in propylene glycol monomethyl ether acetate,[2],1.1 mass %
same,Solubility in γ-butyrolactone,[2],12.6 mass %
CCCCCCCCSc1ccc2c3c(cccc13)C(=O)N(OS(=O)(=O)CC13CCC(CC1=O)C3(C)C)C2=O (stereo not shown) [Compound S-29],"Maximum absorption (nm), first absorption peak",[1],210 nm
same,"Maximum absorption (nm), second absorption peak",[1],400 nm
same,Absorbance at first absorption peak,[1],0.299
same,Absorbance at second absorption peak,[1],0.158
same,Solubility in cyclohexanone,[2],> 20 mass %
same,Solubility in propylene glycol monomethyl ether acetate,[2],9.0 mass %
same,Solubility in γ-butyrolactone,[2],20< mass %
CCCCSc1ccc2c3c(cccc13)C(=O)N(OS(=O)(=O)CC13CCC(CC1=O)C3(C)C)C2=O (stereo not shown) [Compound S-28],Solubility in cyclohexanone,[2],14.0 mass %
same,Solubility in propylene glycol monomethyl ether acetate,[2],2.8 mass %
same,Solubility in γ-butyrolactone,[2],17.8 mass %
Cc1ccc(S(=O)(=O)ON2C(=O)c3cccc4cccc(c34)C2=O)cc1 [compound 3],"Maximum absorption (nm), first absorption peak",[1],229 nm
same,"Maximum absorption (nm), second absorption peak",[1],335 nm
same,Absorbance at first absorption peak,[1],0.513
same,Absorbance at second absorption peak,[1],0.117
same,Solubility in cyclohexanone,[2],1.0 mass %
same,Solubility in propylene glycol monomethyl ether acetate,[2],< 0.5 mass %
same,Solubility in γ-butyrolactone,[2],1.9 mass %
O=C1c2cccc3cccc(c23)C(=O)N1OS(=O)(=O)C(F)(F)F [Comparative compound 2],"Maximum absorption (nm), first absorption peak",[1],226 nm
same,"Maximum absorption (nm), second absorption peak",[1],336 nm
same,Absorbance at first absorption peak,[1],0.389
same,Absorbance at second absorption peak,[1],0.103
same,Solubility in cyclohexanone,[2],7.1 mass %
same,Solubility in propylene glycol monomethyl ether acetate,[2],1.9 mass %
same,Solubility in γ-butyrolactone,[2],4.8 mass %
